Reference: patent US20100093532A1, “Pesticidal Mixtures Comprising Phenylsemicarbazone and Clothianidin” (BASF SE, priority 2007, published 2010)

System: Mediterranean fruitfly (Ceratitis capitata)
Experiment: Control of Mediterranean fruitfly, egg and larval mortality in 96-well microtiter plates with insect diet
Assay type: in vivo
Details: sprayed onto insect diet with C. capitata eggs, 5 days at 28±1° C., 80±5% RH, egg and larval mortality visually assessed
Method: For evaluating control of Mediterranean fruitfly (Ceratitis capitata) the test unit consisted of 96-well-microtiter plates containing an insect diet and 50-80 C. capitata eggs. The compounds or mixtures were formulated using a solution containing 75% water and 25% DMSO. Different concentrations of formulated compounds or mixtures were sprayed onto the insect diet at 5 μl, using a custom built micro atomizer, at two replications.
For experimental mixtures in these tests identical volumes of both mixing partners at the desired concentrations respectively, were mixed together.
After application, microtiter plates were incubated at 28±1° C., 80±5% RH (relative humidity) for 5 days. Egg and larval mortality was then visually assessed.

N#Cc1ccc(CC(=NNC(=O)Nc2ccc(OC(F)(F)F)cc2)c2cccc(C(F)(F)F)c2)cc1 (racemic) [Metaflumizone, 2-[2-(4-cyanophenyl)-1-[3-(trifluoromethyl)phenyl]ethylidene]-N-[4-(trifluoromethoxy)phenyl]hydrazinecarboxamide]
Average Control (%) (Metaflumizone 20 ppm): 0%

CN/C(=N\[N+](=O)[O-])NCc1cnc(Cl)s1 [Clothianidin, (E)-1-(2-chloro-1,3-thiazol-5-ylmethyl)-3-methyl-2-nitroguanidine]
Average Control (%) (Clothianidin 2 ppm): 0%
